These results are taken from patent publication US7713987B2, “Pyrimidine-2,4-diamines and their uses” (Rigel Pharmaceuticals, Inc., priority 2005, dated 2010).

SMILES strings stand for the structures. Bounds are passed on as bounds.

A short description of data set [1]: Pharmacokinetics of the compounds in sprague-dawley rats (oral and IV bolus, plasma LC/MS/MS). It is filed as in vivo. The method, then:
Compounds were administered to rats orally at a dose of 4-5 mg/kg using PEG-400 as a vehicle. Selected compounds were also administered as an IV bolus at a dose of 1 mg/kg. Plasma samples were obtained from either the portal or jugular veins and analyzed by LC/MS/MS for both the parent pyrimidine-2,4-diamine and the prodrug compounds synthesized in the examples above. Bioavailability was calculated using the AUC of pyrimidine-2,4-diamine in jugular vein samples and the AUC of an IV bolus dose of pyrimidine-2,4-diamine. For selected compounds, portal vein samples were evaluated for both prodrug and pyrimidine-2,4-diamine and the information was used to determine the percent absorption of the orally administered dose.

Data set [2] is described as follows: Metabolic stability of prodrugs in rat hepatic microsomes. The class given is in vitro ADME. Particulars: in the presence of NADPH, first value of cell, read-out: T1/2 (half-life of prodrug). The method, then:
(§1) Selected compounds were incubated in rat and human hepatic microsomes (with and without NADPH) and analyzed by LC/MS/MS for both the prodrug and pyrimidine-2,4-diamine.
(§2) Studies were conducted in microsomes to determine whether the prodrug moieties could be hydrolyzed by CYP450 enzymes.

Data set [3] can be described thus: Metabolic stability of prodrugs in human hepatic microsomes. The class given is in vitro ADME. Particulars: in the presence of NADPH, second value of cell, read-out: T1/2 (half-life of prodrug). As for the experimental part:
as §1, §2

Take `COc1cc(N(C(=O)OCCN2CCOCC2)c2ncc(F)c(Nc3ccc4c(n3)NC(=O)C(C)(C)O4)n2)cc(OC)c1OC` [Example 2, N4-(2,2-Dimethyl-3-oxo-4H-5-pyrido[1,4]oxazin-6-yl)-5-fluoro-N2-[[2-(morpholin-4-yl)ethoxy]carbonyl]-N2-(3,4,5-trimethoxyphenyl)-2,4-pyrimidinediamine]: the “% of prodrug absorbed” value in data set [1] (AUC of prodrug in portal vein after oral dose vs AUC in jugular vein after IV dose, dose-corrected) turned out to be 20%. In data set [1] (Sprague-Dawley, rat, plasma, IV bolus 1 mg/kg, read-out: Clearance rate of prodrug), the clearance is 72 mL/min/kg. Moreover, the half-life in data set [2] and in data set [3] was < 5 min each time.

For `COc1cc(N(C(=O)OCC2CCCCN2C)c2ncc(F)c(Nc3ccc4c(n3)NC(=O)C(C)(C)O4)n2)cc(OC)c1OC` (centres unmarked) [Example 3], the half-life in data set [2] and in data set [3] was < 5 min in each case.

For `COc1cc(N(C(=O)N[C@H](C(=O)OC(C)(C)C)C(C)C)c2ncc(F)c(Nc3ccc4c(n3)NC(=O)C(C)(C)O4)n2)cc(OC)c1OC` [Example 8, 1S—N2-[[-1-(t-Butoxycarbonyl)-2-methylpropyl]aminocarbonyl]-N4-(2,2-dimethyl-3-oxo-4H-5-pyrido[1,4]oxazin-6-yl)-5-fluoro-N2-(3,4,5-trimethoxyphenyl)-2,4-pyrimidinediamine], the half-life in data set [2] came to 35 min; in data set [3], 10 min.
